{
  "source": "patent US10238688B2",
  "about": "“Combination therapies for bladder cancer” (GENEDIA BIOTECH CO. LTD., priority 2015, dated 2019);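 for digitalized pathway activity, Wnt: code −1 means repressed below 0.5-fold of 5637 cells or no-drug control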",
  "type_in_all_cases": "cell-based, human",
  "key": {"Heat Shock pathway": {"test_system": "Heat Shock pathway", "assay": "Cignal Finder dual-luciferase pathway reporter, Heat Shock", "parameters": "key to Relative activity, Heat Shock reporter: firefly/renilla ratio, background (negative control) subtracted", "details": "for Relative activity, Heat Shock reporter: luc/Renluc relative to negative control reporter, single drug at 4 folds vs EH/Ci/Mi combination", "protocol": "(§1) The pathway analysis was performed with Qiagen's Cignal Finder Pathway Reporter Array systems according to the manufacturer's instructions. The pathway-focused dual-luciferase reporter construct was a mixture of an inducible transcription factor responsive firefly luciferase reporter and constitutively expressing renilla construct. Transcriptional response element (TRE) sequence response elements to each specific transcriptional factor triggered by the different signaling pathways are positioned before the TATA box of firefly luciferase reporter gene. The extent of activity of the reporter reflects the level of activity of the particular signaling pathway. CMV controlled renilla expression vector is co-transfected into the cell as an internal control. Non-inducible reporter construct that lacks the transcriptional factor binding sequence and could not be induced by any transcription factors is used as a negative control. Cells transfected with CMV directed firefly luciferase reporter gene serve as a positive control. Briefly, cells seeded in 6-well plates were transfected with Cignal finder pathway arrays according to the manufacturer's instructions (Qiagen). Then cells were seeded onto 96-well plates. […] After 6 h of incubation with the different drugs at 37° C., cells were lysed and a dual luciferase assay (for firefly and renilla luciferase) was performed using a PromegaGloMax 20/20 illuminometer. The firefly luciferase activities were normalized over the renilla luciferase activities after background activity determined by luciferase activities of negative controls was subtracted. A triple test of cell survival under these drug doses was also performed by MTT assay following 18 h incubation at 37° C. […]"}, "Myc/Max pathway": {"test_system": "Myc/Max pathway", "assay": "Cignal Finder dual-luciferase pathway reporter, Myc/Max", "details": "for Relative activity, Myc/Max reporter: luc/Renluc relative to negative control reporter, single drug at 4 folds vs EH/Ci/Mi combination", "protocol": "as §1"}, "Wnt pathway": {"test_system": "Wnt pathway", "assay": "Cignal Finder dual-luciferase pathway reporter, Wnt", "parameters": "key to Relative activity, Wnt reporter: firefly/renilla ratio, background (negative control) subtracted", "details": "for Relative activity, Wnt reporter: luc/Renluc relative to negative control reporter, single drug at 4 folds vs EH/Ci/Mi combination", "protocol": "The pathway analysis was performed with Qiagen's Cignal Finder Pathway Reporter Array systems according to the manufacturer's instructions. The pathway-focused dual-luciferase reporter construct was a mixture of an inducible transcription factor responsive firefly luciferase reporter and constitutively expressing renilla construct. Transcriptional response element (TRE) sequence response elements to each specific transcriptional factor triggered by the different signaling pathways are positioned before the TATA box of firefly luciferase reporter gene. The extent of activity of the reporter reflects the level of activity of the particular signaling pathway. CMV controlled renilla expression vector is co-transfected into the cell as an internal control. Non-inducible reporter construct that lacks the transcriptional factor binding sequence and could not be induced by any transcription factors is used as a negative control. Cells transfected with CMV directed firefly luciferase reporter gene serve as a positive control. Briefly, cells seeded in 6-well plates were transfected with Cignal finder pathway arrays according to the manufacturer's instructions (Qiagen). Then cells were seeded onto 96-well plates. Ci (6000 ng/mL), Mi (800 ng/mL), or EH (1000 ng/mL) and Ci/Mi/EH combination (Ci, 1500 ng/mL, Mi, 800 ng/mL and EH, 1000 ng/m L) were then added to the cells 24 h post-transfection. After 6 h of incubation with the different drugs at 37° C., cells were lysed and a dual luciferase assay (for firefly and renilla luciferase) was performed using a PromegaGloMax 20/20 illuminometer. The firefly luciferase activities were normalized over the renilla luciferase activities after background activity determined by luciferase activities of negative controls was subtracted. A triple test of cell survival under these drug doses was also performed by MTT assay following 18 h incubation at 37° C. […]"}, "EJ": {"test_system": "EJ", "assay": "MTT cell survival / IC50, EJ cells", "protocol": "(§2) The clinical grade of the chemotherapeutics (NCI Dictionary of Cancer Terms) was provided by the First Affiliated Hospital of Harbin Medical University: Pirarubicin (Pi, Wanle, Shenzhen), Paclitaxel (Pa, Taiji, Sichuan), Adriamycin (Ad, Pfizer, Jiangsu), Epirubicin Hydrochloride (EH, Haizheng, Zhejiang), Hydroxycamptothecin (Hy, Lishizhen, Hubei), Cisplatin (Ci, Haosen, Jiangsu), Gemcitabine (Ge, Haosen, Jiangsu) and Mitomycin (Mi, Haizheng, Zhejiang). The drug induced cell death was determined by a thiazolyl […] (MTT, 490 nm reading) based cell proliferation assay in the cultured cells following treatment by various concentrations of drugs for 72 hours. The relative chemoresistance to each drug of all cell lines was calculated with the lowest IC50 as a reference. The overall chemoresistance of each cell line was described as “chemoresistance index”, the numerator of the total relative IC50 to all the drugs over the number of drugs to rank the overall resistance state of each cell line to the six chemotherapeutics collectively.\n(§3) The relative IC50 (fold) of each drug of all nine cell lines was normalized to the lowest IC50 in the most sensitive cell line (FIG. 2G), to describe the single drug resistance of cell lines. The overall chemoresistance of each cell line, a “chemoresistance index” (the numerator of the total relative IC50 over the number of drugs) (FIG. 2G) were calculated to rank the overall resistance state of each cell line to this six chemotherapeutics.\n(§4) Twenty six-drug combinations at the indicated doses were initially generated through a random number generator (using MATLAB MathWorks©, Natick, Mass., U.S.) (The upper half of Table 1). The cell survival (% over the not drug control) of treated cells was determined and then used for a calculation of the average cumulative cell survival (%, ACS: the sum of cell survival (%) per combination divided by the number of cell lines tested). ACS<30% was used to separate the effective from the not-effective combinations."}, "T24": {"test_system": "T24", "assay": "MTT cell survival / IC50, T24 cells", "protocol": "as §2, §3, §4"}, "[1]": {"details": "Table S3, ng/ml: Pi 40, Pa 160, EH 250, Ci 1500, Mi 200, 1=Ci/Mi, 2=EH/Ci/Mi, 3=Pa/Ci/Mi, 4=Pi/Ci/Mi"}, "[2]": {"details": "ng/ml: EH 1000, Ci 6000, Mi 800, Pi 160, Pa 640, Ge 20, EH/Ci/Mi regimen"}},
  "data": [
    {"smiles": "COc1cccc2c1C(=O)c1c(O)c3c(c(O)c1C2=O)C[C@@](O)(C(=O)CO)C[C@@H]3[C@@H]1C[C@H](N)[C@@H](O)[C@H](C)O1", "note": "[EH, (8R,10S)-10-((2S,4S,5R,6S)-4-amino-5-hydroxy-6-methyltetrahydro-2H-pyran-2-yl)-6,8,11-trihydroxy-8-(2-hydroxyacetyl)-1-methoxy-7,8,9,10-tetrahydrotetracene-5,12-dione]", "values": [
      {"measurement": "digitalized pathway activity, Heat Shock", "setting": "Heat Shock pathway; 5637 cells", "result": "0 (null (0) if neither of the above holds)"},
      {"measurement": "relative drug trigged pathway activity over the no-drug level, Heat Shock", "setting": "Heat Shock pathway; 5637 cells", "result": 1.04, "unit": "fold"},
      {"measurement": "Relative activity, Heat Shock reporter", "setting": "Heat Shock pathway; 5637 cells", "result": 14.60},
      {"measurement": "digitalized pathway activity, Heat Shock", "setting": "Heat Shock pathway; Biu87 cells", "result": "0 (null (0) if neither of the above holds)"},
      {"measurement": "relative drug trigged pathway activity over the no-drug level, Heat Shock", "setting": "Heat Shock pathway; Biu87 cells", "result": 1.06, "unit": "fold"},
      {"measurement": "Relative activity, Heat Shock reporter", "setting": "Heat Shock pathway; Biu87 cells", "result": 2.01},
      {"measurement": "digitalized pathway activity, Heat Shock", "setting": "Heat Shock pathway; H-bc cells", "result": "0 (null (0) if neither of the above holds)"},
      {"measurement": "relative drug trigged pathway activity over the no-drug level, Heat Shock", "setting": "Heat Shock pathway; H-bc cells", "result": 0.86, "unit": "fold"},
      {"measurement": "Relative activity, Heat Shock reporter", "setting": "Heat Shock pathway; H-bc cells", "result": 3.13},
      {"measurement": "digitalized pathway activity, Heat Shock", "setting": "Heat Shock pathway; SV-HUC-1 cells", "result": "0 (null (0) if neither of the above holds)"},
      {"measurement": "relative drug trigged pathway activity over the no-drug level, Heat Shock", "setting": "Heat Shock pathway; SV-HUC-1 cells", "result": 0.91, "unit": "fold"},
      {"measurement": "Relative activity, Heat Shock reporter", "setting": "Heat Shock pathway; SV-HUC-1 cells", "result": 36.00},
      {"measurement": "digitalized pathway activity, Heat Shock", "setting": "Heat Shock pathway; UM-UC-3 cells", "result": "0 (null (0) if neither of the above holds)"},
      {"measurement": "Relative activity, Heat Shock reporter", "setting": "Heat Shock pathway; UM-UC-3 cells", "result": 2.93},
      {"measurement": "relative drug trigged pathway activity over the no-drug level, Heat Shock", "setting": "Heat Shock pathway; Um-Uc-3 cells", "result": 0.67, "unit": "fold"},
      {"measurement": "relative drug trigged pathway activity over the no-drug level, Myc/Max", "setting": "Myc/Max pathway; 5637 cells", "result": 1.5, "unit": "fold"},
      {"measurement": "Relative activity, Myc/Max reporter", "setting": "Myc/Max pathway; 5637 cells", "result": 16.61},
      {"measurement": "relative drug trigged pathway activity over the no-drug level, Myc/Max", "setting": "Myc/Max pathway; Biu87 cells", "result": 1.66, "unit": "fold"},
      {"measurement": "Relative activity, Myc/Max reporter", "setting": "Myc/Max pathway; Biu87 cells", "result": 13.61},
      {"measurement": "digitalized pathway activity, Myc/Max", "setting": "Myc/Max pathway; H-bc cells", "result": "0 (null (0) if neither of the above holds)"},
      {"measurement": "relative drug trigged pathway activity over the no-drug level, Myc/Max", "setting": "Myc/Max pathway; H-bc cells", "result": 1.37, "unit": "fold"},
      {"measurement": "Relative activity, Myc/Max reporter", "setting": "Myc/Max pathway; H-bc cells", "result": 17.62},
      {"measurement": "digitalized pathway activity, Myc/Max", "setting": "Myc/Max pathway; SV-HUC-1 cells", "result": "0 (null (0) if neither of the above holds)"},
      {"measurement": "relative drug trigged pathway activity over the no-drug level, Myc/Max", "setting": "Myc/Max pathway; SV-HUC-1 cells", "result": 1.13, "unit": "fold"},
      {"measurement": "Relative activity, Myc/Max reporter", "setting": "Myc/Max pathway; SV-HUC-1 cells", "result": 125.00},
      {"measurement": "Relative activity, Myc/Max reporter", "setting": "Myc/Max pathway; UM-UC-3 cells", "result": 25.48},
      {"measurement": "relative drug trigged pathway activity over the no-drug level, Myc/Max", "setting": "Myc/Max pathway; Um-Uc-3 cells", "result": 0.44, "unit": "fold"},
      {"measurement": "digitalized pathway activity, Wnt", "setting": "Wnt pathway; 5637 cells", "result": "0 (null (0) if neither of the above holds)"},
      {"measurement": "relative drug trigged pathway activity over the no-drug level, Wnt", "setting": "Wnt pathway; 5637 cells", "result": 1.19, "unit": "fold"},
      {"measurement": "Relative activity, Wnt reporter", "setting": "Wnt pathway; 5637 cells", "result": 1.04},
      {"measurement": "digitalized pathway activity, Wnt", "setting": "Wnt pathway; Biu87 cells", "result": "0 (null (0) if neither of the above holds)"},
      {"measurement": "relative drug trigged pathway activity over the no-drug level, Wnt", "setting": "Wnt pathway; Biu87 cells", "result": 0.95, "unit": "fold"},
      {"measurement": "Relative activity, Wnt reporter", "setting": "Wnt pathway; Biu87 cells", "result": 1.57},
      {"measurement": "digitalized pathway activity, Wnt", "setting": "Wnt pathway; H-bc cells", "result": "0 (null (0) if neither of the above holds)"},
      {"measurement": "relative drug trigged pathway activity over the no-drug level, Wnt", "setting": "Wnt pathway; H-bc cells", "result": 1.03, "unit": "fold"},
      {"measurement": "Relative activity, Wnt reporter", "setting": "Wnt pathway; H-bc cells", "result": 1.10},
      {"measurement": "digitalized pathway activity, Wnt", "setting": "Wnt pathway; SV-HUC-1 cells", "result": "0 (null (0) if neither of the above holds)"},
      {"measurement": "relative drug trigged pathway activity over the no-drug level, Wnt", "setting": "Wnt pathway; SV-HUC-1 cells", "result": 1.05, "unit": "fold"},
      {"measurement": "Relative activity, Wnt reporter", "setting": "Wnt pathway; SV-HUC-1 cells", "result": 1.30},
      {"measurement": "digitalized pathway activity, Wnt", "setting": "Wnt pathway; UM-UC-3 cells", "result": "0 (null (0) if neither of the above holds)"},
      {"measurement": "Relative activity, Wnt reporter", "setting": "Wnt pathway; UM-UC-3 cells", "result": 4.12},
      {"measurement": "relative drug trigged pathway activity over the no-drug level, Wnt", "setting": "Wnt pathway; Um-Uc-3 cells", "result": 1.15, "unit": "fold"},
      {"measurement": "Cell survival (%)", "setting": "EJ; [1]", "result": 56.55, "unit": "%"},
      {"measurement": "Single drug 4X Cell Survival (%)", "setting": "EJ; [2]", "result": 38.46, "unit": "%"},
      {"measurement": "Cell survival (%)", "setting": "T24; [1]", "result": 20.13, "unit": "%"},
      {"measurement": "Single drug 4X Cell Survival (%)", "setting": "T24; [2]", "result": 17.79, "unit": "%"}
    ]}
  ]
}
